Laboratory results as given in US20240197652A1, “KETAMINE IN THE TREATMENT OF […]” (Awakn LS Europe Holdings Limited, priority 2021, published 2024).

Columns and labels:
Type in all cases: in vivo, human
[1] = Plasma ketamine, HNK and norketamine levels, CSBD subjects (Example 10); conditions: analyte = label; for peak plasma concentration: 100 mg racemic ketamine sublingual; for time of peak plasma concentration: post-administration of 100 mg racemic ketamine sublingual
Description: (§1) A study was completed on the use of ketamine to treat CSBD. Subjects were assessed for CSBD using the Problematic Pornography Use Scale (PPUS) and were included if they received an PPUS score greater than 3. Three subjects in total were included (CSB1-CSB3). All three were administered sublingual lozenges comprising 100 mg of racemic ketamine.
Blood samples were collected from all three subjects. Blood samples were analysed to determine ketamine and ketamine metabolite levels. Assessments were conducted as below.
(§2) The treatment protocol commenced in the same way as disclosed in the ketamine in subjects with gambling disorder study completed in EXAMPLE 7, with the exceptions outlined as follows: No behavioural tasks were completed. Self-report measures completed during EXAMPLE 10 included the Emotional Intimacy Measure, the Childhood Trauma Questionnaire, the Generalised Anxiety Disorder-7 (GAD-7), the Morningness-Eveningness Questionnaire (MEQ), and the Problematic Pornography Questionnaire (PPQ), the Acceptance and Action Questionnaire, and the Psychological and Interpersonal Relationship Scales (PAIRS).

[2] = test system: subjects with CSBD; experiment: Hours of pornography viewed per day, Example 10; conditions: for hours of pornography watched daily at 2-week follow up: after 100 mg racemic ketamine sublingual; for hours of pornography watched daily, pre-administration: baseline before 100 mg racemic ketamine sublingual; for % change in hours of pornography viewed: pre-administration to 2-week follow up, 100 mg racemic ketamine sublingual
Description: as §1, §2

[3] = test system: subjects with CSBD; experiment: Adverse events, KSET, Example 10; conditions: three CSBD subjects; 100 mg racemic ketamine sublingual
[4] = test system: subjects with gaming disorder; experiment: Adverse events, KSET, Example 9; conditions: three gaming disorder subjects; 100 mg racemic ketamine sublingual
[5] = test system: subjects with gambling disorder; experiment: Problem Gambling Severity Index (PGSI), Example 7; conditions: for PGSI score at 2-week follow up / PGSI classification at two-week follow up: after 100 mg racemic ketamine sublingual; for PGSI score, pre-administration / PGSI classification, pre-administration: baseline before 100 mg racemic ketamine sublingual; for % change in PGSI score: pre-administration to 2-week follow up, 100 mg racemic ketamine sublingual
Description: A study was completed on the use of ketamine to treat gambling disorder. Subjects were assessed for gambling disorder using the PGSI. Subjects were included if they received a PGSI score greater than 3. Five subjects in total were included (G1-G5). All five subjects were administered ketamine. Blood samples were collected from all five subjects. Blood samples were analysed to determine ketamine and ketamine metabolite levels, and each subject was assessed post-administration to determine the effectiveness of the treatment.
The study spanned a total of 30 days (not counting initial contact and prescreening). Prescreening of all subjects was conducted by phone, and subjects recorded self-report measures, including the Sensitivity to Punishment and Sensitivity to Reward Questionnaire (SPSRQ) and the Gambling Related Cognitions Questionnaire. Prior to beginning treatment, each subject completed the Beck Depression Inventory (BDI) to determine a baseline depression score. Total scores of 0-13 are minimal, 14-19 are mild, 20-28 are moderate, and 29-63 are severe (Beck, Steer, and Brown, 1996).
On Day 3, each subject returned on-site and was administered ketamine. 100 mg of racemic ketamine was administered in as sublingual lozenges.
The remaining follow-up sessions were completed online. Follow-up 1 was completed on Day 4, Follow-up 2 on Day 14, and Follow-up 3 on Day 30. At each follow-up session, the same self-report measures and behavioural tasks were completed.
The PGSI classifies potential problem gamblers in four categories based on scores. A score of 0 is a non-problem gambler, a score of between 1 and 2 is a low-risk gamber (mild), a score of 3-7 is a moderate-risk gambler (moderate), and a score of 8 or above is a problem gambler (severe). Subject G4 was classified as a moderate-risk (moderate) gambler pre-administration, and at the two-week follow up was classified as a low-risk (mild) gambler. Subject G5 was classified as a problem (severe) gambler pre-administration, and at the two-week follow up was classified as a low-risk (mild) gambler

[6] = test system: total plasma leptin; experiment: Total plasma leptin, Example 8; conditions: for total plasma leptin at 90 minutes post-lozenge / % change in total leptin: 100 mg racemic ketamine sublingual; for total plasma leptin, pre-administration: baseline before 100 mg racemic ketamine sublingual; for % change in total leptin: pre-administration to 90 minutes post-lozenge
Description: Blood samples were collected from all three subjects. Blood samples were analysed to determine ketamine and ketamine metabolite levels, as well as the hormones leptin and ghrelin. Self-report measures were conducted.
The treatment protocol commenced in substantially the same way as disclosed in the ketamine in subjects with gambling disorder study completed in EXAMPLE 7, with the exceptions outlined as follows: No behavioural tasks were completed. Blood samples collected every 10 minutes from the time of administration to 90 minutes post-administration were additionally analysed for leptin and ghrelin. Self-report measures included the Binge Eating Scale, the Adult Attachment Interview (AAI), a 20 question interview about the subject's recollections of their childhood (Sykes and Turner, 2015); the Childhood Trauma Questionnaire; the Morningness-Eveningness Questionnaire (MEQ), a 19-item questionnaire designed to assess when a respondent prefers to wake up or start sleep (American Thoracic Society, 2022); the DSM-5 Binge Eating Disorder diagnostic criteria; and the SPSRQ.
Changes in ghrelin and leptin were measured. Ghrelin stimulates appetite and food intake, increases fat deposition, and releases growth hormone. Obese binge eating disorder subjects often have reduced plasma ghrelin, possibly due to the downregulation of ghrelin from excess eating or body fat (Atalayer et al. 2013). Leptin forms a negative feedback loop between fat cells and the hypothalamus, wherein leptin secretion signals the hypothalamus to inhibit food intake and increase energy expenditure. Increased leptin may aid in reducing appetite cravings associated with binge eating disorder (Obradovic et al. 2021).

NC1(c2ccccc2Cl)CCCCC1=O (racemic) [Norketamine, (R,S)-norketamine]
peak plasma concentration ([1]; subject CSB1): about 1,069 ng/ml
time of peak plasma concentration ([1]; subject CSB1): 80 min
peak plasma concentration ([1]; subject CSB2): about 785 ng/ml
time of peak plasma concentration ([1]; subject CSB2): 70 min
peak plasma concentration ([1]; subject CSB3): about 923 ng/mL
time of peak plasma concentration ([1]; subject CSB3): 70 min

CNC1(c2ccccc2Cl)CCCCC1=O (racemic) [ketamine, 2-(2-chlorophenyl)-2-(methylamino)-cyclohexanone]
hours of pornography watched daily at 2-week follow up ([2]; subject CSB1): 0.5 h
hours of pornography watched daily, pre-administration ([2]; subject CSB1): 2 h
% change in hours of pornography viewed ([2]; subject CSB1): −75%
hours of pornography watched daily at 2-week follow up ([2]; subject CSB2): 3 h
hours of pornography watched daily, pre-administration ([2]; subject CSB2): 4 h
% change in hours of pornography viewed ([2]; subject CSB2): −25%
hours of pornography watched daily at 2-week follow up ([2]; subject CSB3): 1 h
hours of pornography watched daily, pre-administration ([2]; subject CSB3): 1 h
course of adverse events [3]: All adverse events were transient, and resolved two hours post-lozenge
overall tolerability [3]: well-tolerated, with no drop-outs
unexpected adverse reactions (KSET) [3]: No unexpected adverse reactions were observed
course of adverse events [4]: All adverse events were transient, and resolved two hours post-lozenge
overall tolerability [4]: well-tolerated, with no drop-outs
unexpected adverse reactions (KSET) [4]: No unexpected adverse reactions were observed
PGSI score at 2-week follow up ([5]; subject G1): 5
PGSI score, pre-administration ([5]; subject G1): 4
% change in PGSI score ([5]; subject G1): +25%
PGSI score at 2-week follow up ([5]; subject G2): 11
PGSI score, pre-administration ([5]; subject G2): 16
% change in PGSI score ([5]; subject G2): −31.25%
PGSI score at 2-week follow up ([5]; subject G3): 18
PGSI score, pre-administration ([5]; subject G3): 21
% change in PGSI score ([5]; subject G3): −14.29%
PGSI classification at two-week follow up ([5]; subject G4): low-risk (mild) gambler (a score of between 1 and 2 is a low-risk gamber (mild))
PGSI score at 2-week follow up ([5]; subject G4): 1
PGSI classification, pre-administration ([5]; subject G4): moderate-risk (moderate) gambler (a score of 3-7 is a moderate-risk gambler (moderate))
PGSI score, pre-administration ([5]; subject G4): 3
% change in PGSI score ([5]; subject G4): −66.67%
PGSI classification at two-week follow up ([5]; subject G5): low-risk (mild) gambler (a score of between 1 and 2 is a low-risk gamber (mild))
PGSI score at 2-week follow up ([5]; subject G5): 2
PGSI classification, pre-administration ([5]; subject G5): problem (severe) gambler (a score of 8 or above is a problem gambler (severe))
PGSI score, pre-administration ([5]; subject G5): 11
% change in PGSI score ([5]; subject G5): −81.82%
peak plasma concentration ([1]; subject CSB1): about 368 ng/ml
time of peak plasma concentration ([1]; subject CSB1): 70 min
peak plasma concentration ([1]; subject CSB2): about 285 ng/ml
time of peak plasma concentration ([1]; subject CSB2): 30 min
peak plasma concentration ([1]; subject CSB3): about 395 ng/mL
time of peak plasma concentration ([1]; subject CSB3): 50 min
total plasma leptin at 90 minutes post-lozenge ([6]; subject BE1): 9.11 ng/mL
total plasma leptin, pre-administration ([6]; subject BE1): 7.10 ng/mL
% change in total leptin ([6]; subject BE1): +28.31%
total plasma leptin at 90 minutes post-lozenge ([6]; subject BE2): 27.98 ng/mL
total plasma leptin, pre-administration ([6]; subject BE2): 21.88 ng/mL
% change in total leptin ([6]; subject BE2): +27.88%
total plasma leptin at 90 minutes post-lozenge ([6]; subject BE3): 11.23 ng/mL
total plasma leptin, pre-administration ([6]; subject BE3): 12.36 ng/mL
% change in total leptin ([6]; subject BE3): −9.14%

N[C@@]1(c2ccccc2Cl)CCC[C@@H](O)C1=O [HNK, (2S,6S;2R,6R)-hydroxynorketamine]
peak plasma concentration ([1]; subject CSB1): about 136 ng/ml
time of peak plasma concentration ([1]; subject CSB1): 80 min
peak plasma concentration ([1]; subject CSB2): about 135 ng/ml
time of peak plasma concentration ([1]; subject CSB2): 90 min
peak plasma concentration ([1]; subject CSB3): about 314 ng/mL
time of peak plasma concentration ([1]; subject CSB3): 70 min
